Results as given in US5463030A, “Metal chelating agents for medical application” (Research Foundation of the State of New York, priority 1994, dated 1995).
Where two headings read alike, the source gives them in different places. Values belong to the compound of their own block, whether it stands above or below them.

What was measured:
[1] = rat, in vivo, 0 min
[2] = mouse, in vivo; for % dosage, Urine: iv
[3] = in vivo; cited from earlier work
[4] = Osmotic pressure of Gd-DTPA bis pyridoxylamine solution; format: physicochemical; settings: 0.144 moles/liter solution; pH 7.08
Procedure: 0.50 g of the DTPA-bis pyridoxylamine synthesized in Example 4 was reacted with 0.15 g of Gd(OH)3 and 3.6 ml of water. The pH of the mixture was adjusted to 7.51 with sodium hydroxide. The mixture was then heated in an oil bath at a temperature of about 90° C. for about 45 minutes. The mixture was cooled and the pH adjusted to 7.08 with sodium hydroxide. 5.0 ml of the product was recovered. The concentration of the resulting Gd-DTPA bis pyridoxylamine was determined to be 0.144 moles/liter with an osmotic pressure of 646 m Os moles/liter.

[5] = cited from earlier work
[6] = MRI; cited from earlier work

- % Retained, whole body [1]: 100%
- % dosage, Blood ([2]; 60 min): .4441 % DOSAGE
- % dosage, Bone ([2]; 60 min): .1489 % DOSAGE
- % dosage, Large Intestine ([2]; 60 min): .0781 % DOSAGE
- % dosage, Left Kidney ([2]; 60 min): .7115 % DOSAGE
- % dosage, Liver ([2]; 60 min): 22.95 % DOSAGE
- % dosage, Lungs ([2]; 60 min): .0326 % DOSAGE
- % dosage, Muscle ([2]; 60 min): .6207 % DOSAGE
- % dosage, Right Kidney ([2]; 60 min): .6676 % DOSAGE
- % dosage, Small Intestine ([2]; 60 min): 36.08 % DOSAGE
- % dosage, Spleen ([2]; 60 min): .0214 % DOSAGE
- % dosage, Stomach ([2]; 60 min): .2113 % DOSAGE
- % dosage, Blood ([2]; 180 min): .0188 % DOSAGE
- % dosage, Bone ([2]; 180 min): .0678 % DOSAGE
- % dosage, Large Intestine ([2]; 180 min): 1.471 % DOSAGE
- % dosage, Left Kidney ([2]; 180 min): .4528 % DOSAGE
- % dosage, Liver ([2]; 180 min): 2.805 % DOSAGE
- % dosage, Lungs ([2]; 180 min): .0075 % DOSAGE
- % dosage, Muscle ([2]; 180 min): .6183 % DOSAGE
- % dosage, Right Kidney ([2]; 180 min): .5235 % DOSAGE
- % dosage, Small Intestine ([2]; 180 min): 52.10 % DOSAGE
- % dosage, Spleen ([2]; 180 min): .0096 % DOSAGE
- % dosage, Stomach ([2]; 180 min): .1254 % DOSAGE
- % dosage, Blood ([2]; 1440 min): .0038 % DOSAGE
- % dosage, Bone ([2]; 1440 min): .1551 % DOSAGE
- % dosage, Large Intestine ([2]; 1440 min): .5091 % DOSAGE
- % dosage, Left Kidney ([2]; 1440 min): .1050 % DOSAGE
- % dosage, Liver ([2]; 1440 min): 1.659 % DOSAGE
- % dosage, Lungs ([2]; 1440 min): .0085 % DOSAGE
- % dosage, Muscle ([2]; 1440 min): .0861 % DOSAGE
- % dosage, Right Kidney ([2]; 1440 min): .1102 % DOSAGE
- % dosage, Small Intestine ([2]; 1440 min): .1533 % DOSAGE
- % dosage, Spleen ([2]; 1440 min): .0042 % DOSAGE
- % dosage, Stomach ([2]; 1440 min): .0468 % DOSAGE
- % dosage, Urine ([2]; 1 h): 26.30 % DOSAGE
- % dosage, Urine ([2]; 3 h): 32.13 % DOSAGE
Compound: Cc1cccc(C)c1NC(=O)CN(CCN(CCN(CC(=O)[O-])CC(=O)Nc1c(C)cccc1C)CC(=O)[O-])CC(=O)[O-].[153Gd+3] [Gadolinium III chelate of DTPA-bis (2,6-dimethylaniline)]

Compound: O=C([O-])CN(CCN(CC(=O)[O-])CC(=O)[O-])CCN(CC(=O)[O-])C(COCc1ccccc1)C(=O)[O-].[Gd+3] (stereo not drawn) [Gd-BOPTA, gadolinium-benzyloxyproprionyl tetracetate]
- liver concentration of injected dose [3]: 37%

- osmotic pressure [4]: 646 m Os moles/liter
Compound: Cc1ncc(CO)c(CNC(=O)CN(CCN(CCN(CC(=O)[O-])CC(=O)NCc2c(CO)cnc(C)c2O)CC(=O)[O-])CC(=O)[O-])c1O.[Gd+3] [Gd-DTPA bis pyridoxylamine, Gadolinium III chelate of DTPA-bis pyridoxylamide]

Compound: O=C([O-])CN(CCN(CC(=O)[O-])CC(=O)O)CCN(CC(=O)[O-])CC(=O)O.[Gd+3] [Gd-DTPA, gadolinium-diethylene triamino pentaacetic acid]
- blood clearance and excretion [3]: rapid clearance from the blood and subsequent prompt renal excretion

Compound: gadolinium-hepatic iminodiacetic acid [Gd-HIDA]
- in vivo stability [5]: unstable in vivo
- image enhancement of the gall bladder [6]: failed to enhance the image of the gall bladder
- image enhancement of the liver [6]: only faintly enhanced images of the liver
